Test results from ChEMBL document CHEMBL5352429, “Designed symmetrical β-hairpin peptides for treating multidrug-resistant salmonella typhimurium infections” (Eur J Med Chem, 2022).
≈ marks a conversion by molar mass, not a printed value. Calls of active or inactive are those of the source. No cut-off for these calls is given here. Peptide text beside a SMILES is read from it.

Experiments:
Staphylococcus aureus [1] = assay: Antibacterial activity against Staphylococcus aureus ATCC 29213 incubated overnight by standard microtiter dilution method; format: functional
Staphylococcus aureus [2] = assay: Antibacterial activity against methicillin-resistant Staphylococcus aureus ATCC 43300 incubated overnight by standard microtiter dilution method; format: functional
[3] = test system: Staphylococcus epidermidis; assay: Antibacterial activity against methicillin-resistant Staphylococcus epidermidis ATCC 12228 incubated overnight by standard microtiter dilution method; format: functional
Enterococcus faecalis = assay: Antibacterial activity against Enterococcus faecalis ATCC 29212 incubated overnight by standard microtiter dilution method; format: functional
Escherichia coli = assay: Antibacterial activity against Escherichia coli O157:H7 CICC 21530 incubated overnight by standard microtiter dilution method; format: functional
Salmonella paratyphi = assay: Antibacterial activity against Salmonella paratyphi A CICC 21501 incubated overnight by standard microtiter dilution method; format: functional, Salmonella enterica subsp. enterica serovar Paratyphi A
[4] = test system: Salmonella enterica subsp. enterica serovar Paratyphi B; assay: Antibacterial activity against Salmonella paratyphi B CICC 21495 incubated overnight by standard microtiter dilution method; format: functional
[5] = (§1) Antibacterial activity against Salmonella paratyphi C CICC 21512 incubated overnight by standard microtiter dilution method; format: functional, Salmonella enterica subsp. enterica serovar Paratyphi C; conditions: Salmonella enterica
[6] = (§2) Antibacterial activity against Salmonella enterica subsp. enterica serovar Choleraesuis ATCC 13312 incubated overnight by standard microtiter dilution method; format: functional
[7] = (§3) Antibacterial activity against Salmonella enterica subsp. enterica serovar Choleraesuis CICC 21493 incubated overnight by standard microtiter dilution method; format: functional
Salmonella enteritidis = assay: Antibacterial activity against Salmonella enteritidis CICC 21527 incubated overnight by standard microtiter dilution method; format: functional, Salmonella enterica subsp. enterica serovar Enteritidis
[8] = (§4) Antibacterial activity against Salmonella wandsworth CICC 21504 incubated overnight by standard microtiter dilution method; format: functional, Salmonella enterica subsp. enterica serovar Wandsworth; conditions: Salmonella enterica
Salmonella typhimurium [9] = assay: Antibacterial activity against Salmonella typhimurium CICC 21483 incubated overnight by standard microtiter dilution method; format: functional, Salmonella enterica subsp. enterica serovar Typhimurium
Salmonella typhimurium [10] = assay: Antibacterial activity against Salmonella typhimurium CICC 21913 incubated overnight by standard microtiter dilution method; format: functional, Salmonella enterica subsp. enterica serovar Typhimurium
[11] = (§5) Antibacterial activity against Salmonella blockley CICC 21489 incubated overnight by standard microtiter dilution method; format: functional, Salmonella enterica subsp. enterica serovar Blockley; conditions: Salmonella enterica
[12] = (§6) Antibacterial activity against Salmonella dublin CICC 21497 incubated overnight by standard microtiter dilution method; format: functional, Salmonella enterica subsp. enterica serovar Dublin; conditions: Salmonella enterica
Salmonella typhimurium [13] = assay: Antibacterial activity against Salmonella typhimurium DT104 ATCC 700408 incubated overnight by standard microtiter dilution method; format: functional, Salmonella enterica subsp. enterica serovar Typhimurium
Candida albicans = assay: Antifungal activity against Candida albicans ATCC 10231 incubated overnight by standard microtiter dilution method; format: functional
Erythrocyte = assay: Hemolytic activity in human Red blood cells assessed as hemolysis incubated for 1 hrs by absorbance based microplate reader analysis; format: toxicity, cell-based
Salmonella typhimurium [14] = assay: Antibacterial activity against Salmonella typhimurium DT104 in the presence of NaCl by MH broth based assay; format: functional, Salmonella enterica subsp. enterica serovar Typhimurium; conditions: Salmonella enterica
Salmonella typhimurium [15] = assay: Antibacterial activity against Salmonella typhimurium DT104 in the presence of KCl by MH broth based assay; format: functional, Salmonella enterica subsp. enterica serovar Typhimurium; conditions: Salmonella enterica
Salmonella typhimurium [16] = assay: Antibacterial activity against Salmonella typhimurium DT104 in the presence of NH4Cl by MH broth based assay; format: functional, Salmonella enterica subsp. enterica serovar Typhimurium; conditions: Salmonella enterica
Salmonella typhimurium [17] = assay: Antibacterial activity against Salmonella typhimurium DT104 in the presence of CaCl2 by MH broth based assay; format: functional, Salmonella enterica subsp. enterica serovar Typhimurium; conditions: Salmonella enterica
Salmonella typhimurium [18] = assay: Antibacterial activity against Salmonella typhimurium DT104 in the presence of MgCl2 by MH broth based assay; format: functional, Salmonella enterica subsp. enterica serovar Typhimurium; conditions: Salmonella enterica
Salmonella typhimurium [19] = assay: Antibacterial activity against Salmonella typhimurium DT104 in the presence of FeCl3 by MH broth based assay; format: functional, Salmonella enterica subsp. enterica serovar Typhimurium; conditions: Salmonella enterica
Salmonella typhimurium [20] = assay: Antibacterial activity against Salmonella typhimurium DT104 in the presence 25% inactivated mouse serum by MH broth based assay; format: functional, Salmonella enterica subsp. enterica serovar Typhimurium; conditions: Salmonella enterica
Salmonella typhimurium [21] = assay: Antibacterial activity against Salmonella typhimurium DT104 in the presence 50% inactivated mouse serum by MH broth based assay; format: functional, Salmonella enterica subsp. enterica serovar Typhimurium; conditions: Salmonella enterica
[22] = Hemolytic activity in human Red blood cells assessed as hemolysis at 128 ug/ml incubated for 1 hrs by absorbance based microplate reader analysis relative to control; format: toxicity, cell-based, Erythrocyte; conditions: red blood cells (erythrocytes), at 128 µg/mL, read-out: Activity
Salmonella typhimurium [23] = assay: Antibacterial activity against multi-drug resistant Salmonella typhimurium DT104 assessed as inhibition of bacterial growth at 0.5 to 2 times of MIC by MH agar based serial dilution method; format: functional, organism-based; conditions: Salmonella enterica subsp. enterica serovar Typhimurium, time <= 120.0 min, TDE = time-dependent effect
Salmonella typhimurium [24] = assay: Antibacterial activity against multi-drug resistant Salmonella typhimurium DT104 assessed as inhibition of bacterial growth measured upto 120 mins by MH agar based serial dilution method; format: functional, organism-based; conditions: Salmonella enterica subsp. enterica serovar Typhimurium
Salmonella typhimurium [25] = assay: Antibacterial activity against Salmonella typhimurium DT104 infected in mouse RAW264.7 cells assessed as reduction in bacterial cells at 1 times of MIC measured for 180 mins by MH agar based serial dilution method; format: functional, organism-based; conditions: Salmonella enterica subsp. enterica serovar Typhimurium
[26] = (§7) Cytotoxicity against mouse RAW264.7 cells infected with Salmonella typhimurium DT104 assessed as cell viability at 1 times of MIC measured at 180 min by MTT assay; format: toxicity, cell-based; conditions: RAW264.7 cells infected with Salmonella typhimurium DT104, read-out: Activity
Lipopolysaccharide (LPS) = assay: Displacement of BODIPY-TR-cadaverine from Salmonella typhimurium LPS assessed as increase in fluorescence intensity by fluorescence spectrophotometric analysis; conditions: Salmonella enterica subsp. enterica serovar Typhimurium; dose 0.25-8 µg/ml
RAW264.7 [27] = assay: Inhibition of LPS-stimulated NO production in mouse RAW264.7 cells incubated for 24 hrs by Griess reagent based analysis; format: functional, cell-based; conditions: dose 1-128 µg/ml
RAW264.7 [28] = assay: Inhibition of LPS-stimulated TNF-alpha production in mouse RAW264.7 cells at 1 to 128 ug/ml incubated for 24 hrs by ELISA analysis; format: functional, cell-based; conditions: dose 1-128 µg/ml
RAW264.7 [29] = assay: Inhibition of LPS-stimulated IL-1beta production in mouse RAW264.7 cells at 1 to 128 ug/ml incubated for 24 hrs by ELISA analysis; format: functional, cell-based; conditions: dose 1-128 µg/ml
RAW264.7 [30] = assay: Inhibition of LPS-stimulated IL-8 production in mouse RAW264.7 cells at 1 to 128 ug/ml incubated for 24 hrs by ELISA analysis; format: functional, cell-based; conditions: dose 1-128 µg/ml
Cell membrane [31] = assay: Induction of cytoplasmic membrane depolarization in Salmonella typhimurium DT104 assessed as increase in fluorescence intensity at 2 times of MIC incubated for 15 mins by DiSC3-5 dye based fluorescence method; format: subcellular; conditions: Salmonella enterica subsp. enterica serovar Typhimurium
Cell membrane [32] = assay: Disruption of membrane integrity in Salmonella typhimurium DT104 assessed as increase in fluorescence intensity at 0.5 to 2 times of MIC incubated for 15 mins by PI staining based flow cytometric analysis; format: subcellular; conditions: Salmonella enterica subsp. enterica serovar Typhimurium
RAW264.7 [33] = assay: as §7; format: toxicity, cell-based; conditions: raw264.7, 3 h
[34] = test system: Salmonella enterica subsp. enterica serovar Paratyphi C; assay: as §1; format: functional
[35] = test system: Salmonella enterica subsp. enterica serovar Choleraesuis; assay: as §2; format: functional
[36] = test system: Salmonella enterica subsp. enterica serovar Choleraesuis; assay: as §3; format: functional
[37] = test system: Salmonella enterica subsp. enterica serovar Wandsworth; assay: as §4; format: functional
[38] = test system: Salmonella enterica subsp. enterica serovar Blockley; assay: as §5; format: functional
[39] = test system: Salmonella enterica subsp. enterica serovar Dublin; assay: as §6; format: functional
Salmonella typhimurium [40] = assay: Antibacterial activity against multi-drug resistant Salmonella typhimurium DT104 infected in ICR mouse model assessed as fecal shedding of bacteria at 2 mg/kg, ip administered for 3 days and measured on day 7; format: functional, organism-based; conditions: Salmonella enterica subsp. enterica serovar Typhimurium, time 7.0 day
Salmonella typhimurium [41] = assay: Antibacterial activity against multi-drug resistant Salmonella typhimurium DT104 infected in ICR mouse model assessed as reversal of mouse vigour loss at 2 mg/kg, ip administered for 3 days and measured on day 7; format: functional, organism-based; conditions: Salmonella enterica subsp. enterica serovar Typhimurium, time 7.0 day
Salmonella typhimurium [42] = assay: Antibacterial activity against multi-drug resistant Salmonella typhimurium DT104 infected in ICR mouse model assessed as reversal of mouse vitality loss at 2 mg/kg, ip administered for 3 days and measured on day 7; format: functional, organism-based; conditions: Salmonella enterica subsp. enterica serovar Typhimurium, time 7.0 day
Salmonella typhimurium [43] = assay: Antibacterial activity against multi-drug resistant Salmonella typhimurium DT104 infected in ICR mouse model assessed as reversal of body weight loss at 2 mg/kg, ip administered for 3 days and measured on day 7; format: functional, organism-based; conditions: Salmonella enterica subsp. enterica serovar Typhimurium, time 7.0 day
[44] = Salmonella enterica subsp. enterica serovar Typhimurium

`CC(C)C[C@H](NC(=O)[C@H](CCCCN)NC(=O)[C@H](CC(C)C)NC(=O)[C@H](CCCCN)NC(=O)[C@H](CS)NC(=O)CNC(=O)[C@H](CO)NC(=O)[C@H](CCCCN)NC(=O)[C@@H](NC(=O)[C@H](CS)NC(=O)[C@H](CCCCN)NC(=O)[C@H](CC(C)C)NC(=O)[C@H](CCCCN)NC(=O)[C@@H](N)CC(C)C)[C@@H](C)O)C(N)=O` (H-LKLKCTKSGCKLKL-NH2) showed an MIC (Staphylococcus aureus [1]) of 32 mg/L (≈ 20.5 µM), an MIC (Staphylococcus aureus [2]) of 16 mg/L (≈ 10.2 µM) and an MIC [3] of 8 mg/L (≈ 5.12 µM). It also gave an MIC (Enterococcus faecalis) of 32 mg/L (≈ 20.5 µM), an MIC (Escherichia coli) of 2 mg/L (≈ 1.28 µM) and an MIC (Salmonella paratyphi; Salmonella enterica) of 4 mg/L (≈ 2.56 µM). It also gave an MIC [4] of 2 mg/L (≈ 1.28 µM), an MIC [5] of 2 mg/L (≈ 1.28 µM) and an MIC [6] of 1 mg/L (≈ 0.64 µM). For the same compound, the MIC [7] was 16 mg/L (≈ 10.2 µM), the MIC (Salmonella enteritidis; Salmonella enterica) was 16 mg/L (≈ 10.2 µM) and the MIC [8] was 16 mg/L (≈ 10.2 µM). For the same compound, the MIC (Salmonella typhimurium [9]; Salmonella enterica) was 16 mg/L (≈ 10.2 µM), the MIC (Salmonella typhimurium [10]; Salmonella enterica) was 64 mg/L (≈ 41 µM) and the MIC [11] was 32 mg/L (≈ 20.5 µM). For the same compound, the MIC [12] was 8 mg/L (≈ 5.12 µM), the MIC (Salmonella typhimurium [13]; Salmonella enterica) was 32 mg/L (≈ 20.5 µM) and the MIC (Candida albicans) was 4 mg/L (≈ 2.56 µM). The MHC (Erythrocyte) was greater than 128 µg/mL, the MIC (Salmonella typhimurium [14]) was 32 mg/L and the MIC (Salmonella typhimurium [15]) was 16 mg/L. It also gave an MIC (Salmonella typhimurium [16]) of 16 mg/L, an MIC (Salmonella typhimurium [17]) of 64 mg/L and an MIC (Salmonella typhimurium [18]) of 32 mg/L. For the same compound, the MIC (Salmonella typhimurium [19]) was 128 mg/L, the MIC (Salmonella typhimurium [20]) was 64 mg/L (≈ 41 µM) and the MIC (Salmonella typhimurium [21]) was 64 mg/L (≈ 41 µM). The hemolysis at 1 h, 128 ug/ml [22] was less than 10%, the Activity (Salmonella typhimurium [23]) was “Tde” and the Activity (Salmonella typhimurium [24]) was “Dose-Dependent Effect”. For the same compound, the Activity (Salmonella typhimurium [25]) was “Active”, the viability at 3 h, 1 times of MIC [26] was greater than 90% and the Activity (Lipopolysaccharide (LPS)) was “Dose-Dependent Effect”. The inhibition (RAW264.7 [27]) was “Dose-Dependent Effect”, the inhibition (RAW264.7 [28]) was “Active” and the inhibition (RAW264.7 [29]) was “Active”. The inhibition (RAW264.7 [30]) was “Active”, the Activity (Cell membrane [31]) was “Active” and the Activity (Cell membrane [32]) was “Active”.
Compound POLYMYXIN B [listing 1 of 2 here] has an MHC (Erythrocyte) greater than 128 µg/mL and an Activity (RAW264.7 [33]) greater than 90%.
POLYMYXIN B [listing 2 of 2 here] gave an MIC (Staphylococcus aureus [1]) of 64 mg/L, an MIC (Staphylococcus aureus [2]) greater than 128 mg/L and an MIC [3] of 4 mg/L. The MIC (Enterococcus faecalis) was 128 mg/L, the MIC (Escherichia coli) was 32 mg/L and the MIC (Salmonella paratyphi; Salmonella enterica subsp. enterica serovar Paratyphi A) was 4 mg/L. It also gave an MIC [4] of 2 mg/L, an MIC [34] of 2 mg/L and an MIC [35] of 1 mg/L. It also gave an MIC [36] of 4 mg/L, an MIC (Salmonella enteritidis; Salmonella enterica subsp. enterica serovar Enteritidis) of 2 mg/L and an MIC [37] of 1 mg/L. It also gave an MIC (Salmonella typhimurium [9]; [44]) of 2 mg/L, an MIC (Salmonella typhimurium [10]; [44]) of 2 mg/L and an MIC [38] of 1 mg/L. For the same compound, the MIC [39] was 2 mg/L, the MIC (Salmonella typhimurium [13]; [44]) was 4 mg/L and the MIC (Candida albicans) was 64 mg/L. For the same compound, the Activity (Lipopolysaccharide (LPS)) was “Dose-Dependent Effect”, the Activity (Salmonella typhimurium [40]) was “inactive” and the Activity (Salmonella typhimurium [41]) was “inactive”. The Activity (Salmonella typhimurium [42]) was “inactive” and the Activity (Salmonella typhimurium [43]) was “inactive”.
